From article PMC11524583, “Neurons enhance blood–brain barrier function via upregulating claudin-5 and VE-cadherin expression due to glial cell line-derived neurotrophic factor secretion” (eLife, 2024)

Legend:
Assay type in all cases: cell-based, Homo sapiens
[1] = tested on: ETS1; experiment: Western blot of total and nuclear ETS1 in hCMEC/D3 cells; details: hCMEC/D3 cells, 200 pg/ml GDNF; LY294002 or U0126
Method: (§1) Whole-cell and tissue lysates, nucleoprotein, and cytoplasmic protein were prepared using RIPA Lysis Buffer (Beyotime, Shanghai, China) as the described method ([Wu et al., 2021]). Proteins were separated through sodium dodecyl sulfate–polyacrylamide gel electrophoresis and transferred onto nitrocellulose or polyvinylidene difluoride membranes. The membranes were blocked with 5% skim milk and incubated with corresponding primary antibodies at 4°C overnight. After being washed with Tris-buffered saline Tween buffer, the membranes were incubated with secondary antibodies (Cell Signaling Technology, MA, USA) at 1:3000 dilution: Anti-mouse IgG, HRP-linked Antibody (#7076), Anti-rabbit IgG, HRP-linked Antibody (#7074). Protein levels were visualized using a highly sensitive ECL western blotting substrate and a gel imaging system (Tanon Science & Technology, Shanghai, China).
(§2) Here, hCMEC/D3 cells were plated in the plates or culture dishes at 6 × 10^4 cells/cm^2 and transfected with 10 nM of negative control or human FOXO1, ETS1, and CDH5 siRNA (Tsingke Biotechnology, Beijing, China) for 12 hr using Lipofectamine 3000 (Invitrogen, Carlsbad, CA, USA) reagent according to the manufacturer’s instructions. Cells were then incubated with a medium containing GDNF for 72 hr.

[2] = tested on: VE-cadherin; experiment: Western blot of VE-cadherin expression in hCMEC/D3 cells; details: hCMEC/D3 cells, anti-GDNF antibody 0.25, 0.5, 1.0 μg/ml; for GDNF-induced VE-cadherin expression: 200 pg/ml GDNF, 3 μM SPP-86, 5 μM PP2, 3 μM LY294002, 2 μM U0126, 5 μM SP600125, 2 μM SB203580; for US-CM-induced VE-cadherin expression: 3 μM SPP-86, 5 μM PP2, 3 μM LY294002, 2 μM U0126
Method: as §1
(§3) CM of U251 cells (U-CM), SH-SY5Y cells (S-CM), or co-culture of U251 and SH-SY5Y cells (US-CM) was prepared. U251 cells were seeded at the top of the insert membrane and suspended on 6-well plates seeded with differentiated SH-SY5Y cells to co-culture U251 cells with SH-SY5Y cells. The medium was collected every 24 hr. The CMs were subsequently used for hCMEC/D3 cell culture after filtrating with 0.2 μm filters for 144 hr. The levels of GDNF, bFGF, IGF-1, and TGF-β in CMs were measured using corresponding ELISA kits according to the manufacturers’ instructions.
(§4) Exogenous and endogenous GDNF in the medium was neutralized with anti-GDNF antibody (#AF-212-NA, R&D system, Minneapolis, MN, USA). 0.25, 0.5, and 1.0 μg/ml anti-GDNF antibody was added into the US-CM or medium containing 200 pg/ml GDNF, and then the medium was preincubated at 4°C for 1 hr. The hCMEC/D3 cells were incubated with 200 pg/ml GDNF or US-CM containing anti-GDNF antibody or not for 6 days, and then cell lysate was collected for western blot. The medium was replaced every 24 hr.
as §2

[3] = tested on: p-ERK/ERK; experiment: Western blot of p-ERK/ERK in hCMEC/D3 cells; details: hCMEC/D3 cells, US-CM; 2 μM U0126 or anti-GDNF antibody
Method: as §1, §4

[4] = tested on: claudin-5; experiment: Western blot of claudin-5 expression in hCMEC/D3 cells; details: hCMEC/D3 cells; for GDNF-induced claudin-5 expression: 200 pg/ml GDNF, 3 μM SPP-86, 5 μM PP2, 3 μM LY294002, 2 μM U0126, 5 μM SP600125, 2 μM SB203580; for GDNF-induced claudin-5 expression / US-CM-induced claudin-5 expression: anti-GDNF antibody 0.25, 0.5, 1.0 μg/ml; for US-CM-induced claudin-5 expression: 3 μM SPP-86, 5 μM PP2, 3 μM LY294002, 2 μM U0126
Method: as §1, §3, §4, §2
(§5) The plasmids encoding FOXO1 (EX-Z7404-M02) were constructed by GeneCopoeia (Rockville, MD, USA). The hCMEC/D3 cells were plated in plates or dishes at 6 × 10^4 cells/cm^2. They were subsequently transfected with 1 µg of negative control or plasmids encoding FOXO1 6 hr using Lipofectamine 3000 reagent according to the manufacturer’s instructions. Transfected cells were then incubated with the medium containing GDNF for 72 hr.

[5] = tested on: p-AKT/AKT; experiment: Western blot of p-AKT/AKT in hCMEC/D3 cells; details: hCMEC/D3 cells, US-CM; 3 μM LY294002 or anti-GDNF antibody
Method: as §1, §4

[6] = tested on: FOXO1; experiment: Western blot of FOXO1 (p-FOXO1/FOXO1, total, cytoplasmic, nuclear) in hCMEC/D3 cells; details: hCMEC/D3 cells; LY294002 or U0126
Method: as §1, §2, §5

N#CC(=C(/N)Sc1ccccc1N)/C(C#N)=C(/N)Sc1ccccc1N [U0126, reference compound]
GDNF-induced nuclear ETS1 expression [1]: markedly attenuated
GDNF-induced total ETS1 expression [1]: markedly attenuated
GDNF-induced VE-cadherin expression [2]: significantly suppressed
US-CM-induced VE-cadherin expression [2]: markedly reversed
US-CM-induced p-ERK [3]: markedly reversed
GDNF-induced claudin-5 expression [4]: significantly suppressed
US-CM-induced claudin-5 expression [4]: markedly reversed

O=c1cc(N2CCOCC2)oc2c(-c3ccccc3)cccc12 [LY294002, reference compound]
GDNF-induced nuclear ETS1 expression [1]: markedly attenuated
GDNF-induced total ETS1 expression [1]: markedly attenuated
US-CM-induced p-AKT [5]: markedly reversed
GDNF-induced VE-cadherin expression [2]: significantly suppressed
US-CM-induced VE-cadherin expression [2]: markedly reversed
GDNF-induced alterations in total p-FOXO1, cytoplasmic p-FOXO1, cytoplasmic FOXO1, and nuclear FOXO1 [6]: significantly reversed
GDNF-induced claudin-5 expression [4]: significantly suppressed
US-CM-induced claudin-5 expression [4]: markedly reversed
upregulation of claudin-5 expression induced by FOXO1 siRNA and GDNF ([4]; LY294002): reversed
